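Results reflect a 48-hour exposure of cells in 96-well plates to compound at five concentrations. TGI: total growth inhibition.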
Tests used:
Experiment in all cases: growth of human tumour cells (NCI), 48 h
786-0 renal = system: 786-0 renal
A498 renal = system: A498 renal
A549 NSCLC = system: A549 NSCLC
ACHN renal = system: ACHN renal
BT-549 breast = system: BT-549 breast
CAKI-1 renal = system: CAKI-1 renal
CCRF-CEM leukemia = system: CCRF-CEM leukemia
COLO 205 colon = system: COLO 205 colon
DU-145 prostate = system: DU-145 prostate
EKVX NSCLC = system: EKVX NSCLC
HCT-116 colon = system: HCT-116 colon
HL-60(TB) leukemia = system: HL-60(TB) leukemia
HOP-62 NSCLC = system: HOP-62 NSCLC
HOP-92 NSCLC = system: HOP-92 NSCLC
HS 578T breast = system: HS 578T breast
HT29 colon = system: HT29 colon
IGROV1 ovarian = system: IGROV1 ovarian
K-562 leukemia = system: K-562 leukemia
KM12 colon = system: KM12 colon
LOX IMVI melanoma = system: LOX IMVI melanoma
M14 melanoma = system: M14 melanoma
MALME-3M melanoma = system: MALME-3M melanoma
MCF7 breast = system: MCF7 breast
MDA-MB-231 breast = system: MDA-MB-231 breast
MDA-MB-435 = system: MDA-MB-435
MDA-N = system: MDA-N
MOLT-4 leukemia = system: MOLT-4 leukemia
NCI-H226 lung = system: NCI-H226 lung
NCI-H23 lung = system: NCI-H23 lung
NCI-H522 lung = system: NCI-H522 lung
NCI/ADR-RES ovarian = system: NCI/ADR-RES ovarian
OVCAR-3 ovarian = system: OVCAR-3 ovarian
OVCAR-4 ovarian = system: OVCAR-4 ovarian
OVCAR-5 ovarian = system: OVCAR-5 ovarian
OVCAR-8 ovarian = system: OVCAR-8 ovarian
PC-3 prostate = system: PC-3 prostate
RPMI-8226 leukemia = system: RPMI-8226 leukemia
RXF 393 renal = system: RXF 393 renal
SF-268 CNS = system: SF-268 CNS
SF-295 CNS = system: SF-295 CNS
SF-539 CNS = system: SF-539 CNS
SK-MEL-2 melanoma = system: SK-MEL-2 melanoma
SK-MEL-28 melanoma = system: SK-MEL-28 melanoma
SK-MEL-5 melanoma = system: SK-MEL-5 melanoma
SN12C renal = system: SN12C renal
SNB-19 CNS = system: SNB-19 CNS
SNB-75 CNS = system: SNB-75 CNS
SR leukemia = system: SR leukemia
SW-620 colon = system: SW-620 colon
T-47D breast = system: T-47D breast
TK-10 renal = system: TK-10 renal
U251 CNS = system: U251 CNS
UACC-257 melanoma = system: UACC-257 melanoma
UACC-62 melanoma = system: UACC-62 melanoma
UO-31 renal = system: UO-31 renal
HCC-2998 colon = system: HCC-2998 colon
HCT-15 colon = system: HCT-15 colon
NCI-H460 lung = system: NCI-H460 lung
SK-OV-3 ovarian = system: SK-OV-3 ovarian

Structure (SMILES): Cc1cn(C2CC(Br)C(COC(c3ccccc3)(c3ccccc3)c3ccccc3)O2)c(=O)[nH]c1=O (stereo not given)
- TGI (786-0 renal): 27.4 µM
- TGI (A498 renal): 29.9 µM
- TGI (A549 NSCLC): 23.8 µM
- TGI (ACHN renal): 26.8 µM
- TGI (BT-549 breast): 24.4 µM
- TGI (CAKI-1 renal): 29.2 µM
- TGI (CCRF-CEM leukemia): 24.1 µM
- TGI (COLO 205 colon): 27.1 µM
- TGI (DU-145 prostate): 27.7 µM
- TGI (EKVX NSCLC): 28.9 µM
- TGI (HCT-116 colon): 20.5 µM
- TGI (HL-60(TB) leukemia): > 100 µM
- TGI (HOP-62 NSCLC): 31 µM
- TGI (HOP-92 NSCLC): 24.6 µM
- TGI (HS 578T breast): 32.8 µM
- TGI (HT29 colon): 23.4 µM
- TGI (IGROV1 ovarian): 27.9 µM
- TGI (K-562 leukemia): > 100 µM
- TGI (KM12 colon): 19.4 µM
- TGI (LOX IMVI melanoma): 24.4 µM
- TGI (M14 melanoma): 26.7 µM
- TGI (MALME-3M melanoma): 32.4 µM
- TGI (MCF7 breast): 22.4 µM
- TGI (MDA-MB-231 breast): 33.5 µM
- TGI (MDA-MB-435): 30.1 µM
- TGI (MDA-N): 28.2 µM
- TGI (MOLT-4 leukemia): 28.8 µM
- TGI (NCI-H226 lung): 34.2 µM
- TGI (NCI-H23 lung): 20 µM
- TGI (NCI-H522 lung): 19.8 µM
- TGI (NCI/ADR-RES ovarian): 28.9 µM
- TGI (OVCAR-3 ovarian): 25.2 µM
- TGI (OVCAR-4 ovarian): 25.8 µM
- TGI (OVCAR-5 ovarian): 30.4 µM
- TGI (OVCAR-8 ovarian): 23.2 µM
- TGI (PC-3 prostate): 17.7 µM
- TGI (RPMI-8226 leukemia): 20.6 µM
- TGI (RXF 393 renal): 23.5 µM
- TGI (SF-268 CNS): 28.4 µM
- TGI (SF-295 CNS): 21.7 µM
- TGI (SF-539 CNS): 31.6 µM
- TGI (SK-MEL-2 melanoma): 28.7 µM
- TGI (SK-MEL-28 melanoma): 30.3 µM
- TGI (SK-MEL-5 melanoma): 25.5 µM
- TGI (SN12C renal): 27.8 µM
- TGI (SNB-19 CNS): 29.9 µM
- TGI (SNB-75 CNS): 24.3 µM
- TGI (SR leukemia): 23.1 µM
- TGI (SW-620 colon): 28.5 µM
- TGI (T-47D breast): 26.3 µM
- TGI (TK-10 renal): 28 µM
- TGI (U251 CNS): 24.9 µM
- TGI (UACC-257 melanoma): 29.8 µM
- TGI (UACC-62 melanoma): 24.8 µM
- TGI (UO-31 renal): 19.5 µM

Structure (SMILES): COc1ccc(CN=C2N/C(=C\c3ccccc3Cl)C(=O)N2C)cc1
- TGI (786-0 renal): 36.1 µM
- TGI (A498 renal): 77.9 µM
- TGI (A549 NSCLC): > 100 µM
- TGI (ACHN renal): > 100 µM
- TGI (BT-549 breast): 94.8 µM
- TGI (CAKI-1 renal): > 100 µM
- TGI (COLO 205 colon): 58.8 µM
- TGI (DU-145 prostate): > 100 µM
- TGI (EKVX NSCLC): > 100 µM
- TGI (HCC-2998 colon): 59.9 µM
- TGI (HCT-116 colon): 39.3 µM
- TGI (HCT-15 colon): > 100 µM
- TGI (HL-60(TB) leukemia): 57.9 µM
- TGI (HOP-62 NSCLC): > 100 µM
- TGI (HOP-92 NSCLC): 63.4 µM
- TGI (HS 578T breast): > 100 µM
- TGI (HT29 colon): 57.2 µM
- TGI (IGROV1 ovarian): 62.6 µM
- TGI (K-562 leukemia): > 100 µM
- TGI (KM12 colon): 52.2 µM
- TGI (LOX IMVI melanoma): 43 µM
- TGI (M14 melanoma): 36.2 µM
- TGI (MALME-3M melanoma): > 100 µM
- TGI (MCF7 breast): 90.2 µM
- TGI (MDA-MB-231 breast): 96.9 µM
- TGI (MDA-MB-435): 46.8 µM
- TGI (MDA-N): 44.5 µM
- TGI (MOLT-4 leukemia): > 100 µM
- TGI (NCI-H226 lung): > 100 µM
- TGI (NCI-H460 lung): > 100 µM
- TGI (NCI-H522 lung): 51.1 µM
- TGI (NCI/ADR-RES ovarian): > 100 µM
- TGI (OVCAR-3 ovarian): 52.4 µM
- TGI (OVCAR-4 ovarian): 86.4 µM
- TGI (OVCAR-5 ovarian): > 100 µM
- TGI (OVCAR-8 ovarian): 77.4 µM
- TGI (PC-3 prostate): 96.6 µM
- TGI (RXF 393 renal): > 100 µM
- TGI (SF-268 CNS): > 100 µM
- TGI (SF-295 CNS): > 100 µM
- TGI (SF-539 CNS): 72.7 µM
- TGI (SK-MEL-2 melanoma): 42.8 µM
- TGI (SK-MEL-28 melanoma): > 100 µM
- TGI (SK-MEL-5 melanoma): 43.2 µM
- TGI (SK-OV-3 ovarian): > 100 µM
- TGI (SN12C renal): 39.8 µM
- TGI (SNB-19 CNS): > 100 µM
- TGI (SNB-75 CNS): 38.4 µM
- TGI (SR leukemia): 90 µM
- TGI (SW-620 colon): 50.1 µM
- TGI (T-47D breast): 48.8 µM
- TGI (TK-10 renal): > 100 µM
- TGI (U251 CNS): 40.7 µM
- TGI (UACC-257 melanoma): > 100 µM
- TGI (UACC-62 melanoma): 37.6 µM

Structure (SMILES): O=C(N/N=C\c1c(O)ccc2ccccc12)c1ccncc1
- TGI (786-0 renal): > 25 µM
- TGI (A498 renal): > 15.6 µM
- TGI (A549 NSCLC): > 25 µM
- TGI (ACHN renal): > 13.5 µM
- TGI (BT-549 breast): > 8.19 µM
- TGI (CAKI-1 renal): > 4.94 µM
- TGI (COLO 205 colon): > 14.2 µM
- TGI (DU-145 prostate): > 25 µM
- TGI (EKVX NSCLC): > 25 µM
- TGI (HCC-2998 colon): > 25 µM
- TGI (HCT-116 colon): > 25 µM
- TGI (HCT-15 colon): > 25 µM
- TGI (HL-60(TB) leukemia): 5.91 µM
- TGI (HOP-62 NSCLC): > 25 µM
- TGI (HOP-92 NSCLC): 18.8 µM
- TGI (HS 578T breast): > 25 µM
- TGI (HT29 colon): > 25 µM
- TGI (IGROV1 ovarian): 1.84 µM
- TGI (KM12 colon): > 25 µM
- TGI (LOX IMVI melanoma): > 25 µM
- TGI (M14 melanoma): > 19.4 µM
- TGI (MALME-3M melanoma): > 7.77 µM
- TGI (MCF7 breast): > 7.75 µM
- TGI (MDA-MB-231 breast): > 5.71 µM
- TGI (MDA-MB-435): > 25 µM
- TGI (MDA-N): > 25 µM
- TGI (NCI-H226 lung): 2.67 µM
- TGI (NCI-H23 lung): > 25 µM
- TGI (NCI-H460 lung): > 6.82 µM
- TGI (NCI-H522 lung): > 7.49 µM
- TGI (NCI/ADR-RES ovarian): > 8.64 µM
- TGI (OVCAR-3 ovarian): > 25 µM
- TGI (OVCAR-4 ovarian): > 22.2 µM
- TGI (OVCAR-5 ovarian): > 25 µM
- TGI (OVCAR-8 ovarian): > 25 µM
- TGI (PC-3 prostate): > 25 µM
- TGI (RPMI-8226 leukemia): > 5.06 µM
- TGI (RXF 393 renal): > 8.59 µM
- TGI (SF-295 CNS): > 25 µM
- TGI (SF-539 CNS): 8.2 µM
- TGI (SK-MEL-2 melanoma): > 9.41 µM
- TGI (SK-MEL-28 melanoma): > 25 µM
- TGI (SK-MEL-5 melanoma): > 9.41 µM
- TGI (SK-OV-3 ovarian): 24.3 µM
- TGI (SN12C renal): > 5.5 µM
- TGI (SNB-19 CNS): > 25 µM
- TGI (SNB-75 CNS): > 25 µM
- TGI (SR leukemia): > 25 µM
- TGI (SW-620 colon): > 25 µM
- TGI (T-47D breast): > 25 µM
- TGI (TK-10 renal): > 25 µM
- TGI (U251 CNS): > 25 µM
- TGI (UACC-257 melanoma): > 25 µM
- TGI (UACC-62 melanoma): 2.04 µM
- TGI (UO-31 renal): 3.95 µM

From PubChem BioAssay (NCI)
